Among the data in a melting point compilation (Tetko et al.; mined from patent text by program, amines drawn as free bases though some values may be those of a salt) are melting point values, retold here.

Each structure is given as a SMILES string.

Turning to `O=c1c2ccccc2n(Cc2ccccc2)c2cc(Cl)ccc12`, the melting point lay in the range of 134 to 136 °C.

The compound `O=C1C=CC(O)(c2cc3ccccc3n2S(=O)(=O)c2ccccc2)C=C1` yielded a melting point of 170 to 172 °C.

On to `Cc1c(-c2ccc(O)cc2)n(Cc2ccc(OCCN3CCC(C)CC3)cc2)c2ccc(O)cc12`, for which the melting point fell in the range of 154 to 162 °C.

`Brc1ccc(-c2cc3c(ccc4ccccc43)o2)cc1` came in with a melting point of 154 to 155 °C.

As for `CC(=O)Nc1ccc(N)c2c1C(=O)C(O)(c1ccc(C(C)C)cc1O)C2=O` (configuration not stated), the melting point fell in the range of 278 to 280 °C.

Consider `CCCCCCCCCCCCCCCCCCOc1cc(OCCCOc2ccc(S(C)(=O)=O)cc2)cc(C(=O)O)c1`, for which the melting point fell in the range of 110 to 111 °C.

Take `COc1cccc(C=C2c3ccccc3CCc3ccccc32)c1`: the melting point turned out to be 83 °C.

On to `COc1ccc2c(c1)C(=O)CC21CNC(=O)C1` (configuration not stated), for which the melting point lay within 179 to 180 °C.

The compound `CC(C=CCO)Oc1ccc(Oc2cnc3cc(F)ccc3n2)cc1` (configuration not stated) registered a melting point of 109 to 111 °C.

`Cn1ccnc1-c1ccc(C(=O)CNC(=O)[C@H](Cc2ccccn2)NC(=O)OC(C)(C)C)cc1` came in with a melting point of 120 to 124 °C.

For `COC(=O)c1coc2ccc(OCc3ccccc3)cc2c1=O`, the melting point fell in the range of 88 to 89 °C.

In the case of `CC(=O)NCP(=O)(O)O`, the melting point lay within 171 to 175 °C.

In turn, `CCCC1=C(C(=O)OCC)C(c2cccc(F)c2F)c2c[nH]nc2N1` (configuration not stated) gave a melting point of 207 °C.

With `CCCCCCCCCCCCCCOc1ccc(C(=O)N(CC(=O)O)CC(=O)O)cc1OCCCCCCCCCCCCCC`, the melting point was in the range of 84 to 87 °C.

Compound `N#CC(c1ccccn1)C1CCCCC1O` (configuration not stated) gave a melting point of 110 to 112 °C.

Compound `CCOC(=O)c1ccc(N2CCc3[nH]c4c(cnc5cc(Cl)ccc54)c3C2)cc1` displayed a melting point of 241 to 243 °C.

Turning to `CC(=O)OCCc1ccc(C2=NNC(=O)CC2)cc1`, the melting point was in the range of 94 to 96 °C.

Regarding `N#CC1(N2CCC(n3c(=O)[nH]c4ccccc43)CC2)CCCCC1`, the melting point lay in the range of 199 to 201 °C.

Compound `CCC1(CC)c2cc(I)ccc2-c2ccc(-c3nc4ccccc4s3)cc21` gave a melting point of 158 to 160 °C.

Take `CCCCc1oc2ccccc2c1C(O)c1ccc(-c2ccc(O)cc2)cc1` (configuration not stated): the melting point lay in the range of 47 to 49 °C.

As for `NC1=NC(c2ccc(OC(F)F)cc2)(c2cccc(-c3cccnc3F)c2)C2=NCC3(COC3)CN12` (configuration not stated), the melting point was 96 to 107 °C.

In turn, `NC(=O)Nc1ccc(OCCn2ccnc2)cc1` registered a melting point of 199 to 201 °C.

For `Brc1ccc(-c2cc3cc(-c4ccccc4)ccc3o2)cc1`, the melting point lay in the range of 90 to 92 °C.

`CCN(CC)c1ccc(-c2ncccc2S(=O)(=O)Nc2ncc(C)nc2OC)cc1` displayed a melting point of 115 to 117 °C.

The compound `CCC1(C)CCC(N)=CC1=O` (configuration not stated) showed a melting point of 99 to 100 °C.

Compound `CCOC(=O)c1ncn2c1CN(C)C(=O)c1c(Cl)cccc1-2` came in with a melting point of 229 to 230 °C.

`CCCCCCCCCCNC(=O)N(O)CCCC(=O)OCC` registered a melting point of 68 to 69 °C.

For the compound `CN1C(=O)CSc2c(NCc3cccc(OCc4ccc5ccccc5n4)c3)cccc21`, the melting point is 102 to 104 °C.

In the case of `CS(=O)(=O)c1ccc(NC(=O)c2ccccc2Br)cc1`, the melting point lay within 168 to 169 °C.

For `CC(=O)Oc1c(C2CCN(CCCCNC(=O)c3ccc(NC(=O)c4ccc(Cl)cc4)cc3)CC2)ccc2c1CCCC2`, the melting point amounted to 254 °C.

In turn, `COC(=O)c1ccc(OCc2ccccc2)c(OC2CCCC2)c1` returned a melting point of 58 to 59 °C.

Compound `CCOC(=O)c1ccc(-n2cncn2)cc1` returned a melting point of 97 to 99 °C.

In the case of `CCOC(=O)C1=C(C)NC(C)=C(C(=O)OCCN2CCN(C(c3ccc(C)cc3)c3ccc(C)cc3)CC2)C1c1cccc(Cl)c1Cl` (configuration not stated), the melting point lay in the range of 85 to 88 °C.

For `COc1cc(OC)c(-c2ccccc2)nn1`, the melting point is 53 to 54 °C.

For the compound `Cn1nnc2c(N3CCOCC3)nc(-c3ccc(NC(=O)Nc4cccnc4)cc3)nc21`, the melting point stood at 272 °C.

Take `O=C(O)Cc1cccc(CNC(=O)C2Cc3ccccc3N2S(=O)(=O)c2ccc(-c3cccc(C(F)(F)F)c3)cc2)c1` (configuration not stated): the melting point turned out to be 80 °C.

Consider `C[C@H](NC(=O)C1(C)Sc2ccccc2NC1=O)C(=O)N[C@H](CCC(=O)O)C(N)=O` (some centres not stated), for which the melting point lay in the range of 124 to 125 °C.

Compound `CC(=CC(=O)Nc1ccccc1OCCCC(=O)O)c1ccc2c(ccn2C(c2ccccc2)c2ccccc2)c1` displayed a melting point of 158 to 162 °C.

Compound `O=C(c1cccc(Br)c1)C(Br)C(Br)c1cccc(Br)c1` (configuration not stated) showed a melting point of 159 to 160 °C.

Turning to `CC(=O)Nc1ccc(SSc2ccc(NC(C)=O)cc2C(=O)NC(CC(C)C)C(=O)O)c(C(=O)NC(CC(C)C)C(=O)O)c1` (configuration not stated), the melting point fell in the range of 241 to 242 °C.

Turning to `N#Cc1cccc2c1NC(=O)C21COc2cc3c(cc21)OCO3` (configuration not stated), the melting point lay in the range of 205 to 207 °C.

On to `CCOCCOc1cc(C(C)C)c(NC(=O)CN2CCN(CCCSc3nc4ccccc4o3)CC2)c(C(C)C)c1`, for which the melting point is 115 to 117 °C.

Consider `CCC(CC)c1ccc(Cl)c2nc3n(c12)CCN3c1ccc(Cl)cc1Br`, for which the melting point lay within 169 to 171 °C.

Turning to `CCN1c2ncc(CCc3ccnc(O)c3)cc2C(=O)N(C)c2ccc(Cl)nc21`, the melting point was in the range of 243 to 244 °C.

Consider `Cc1cc2cc(P(=O)(O)O)c(=O)[nH]c2cc1C`, for which the melting point is > 300 °C.

The compound `COC(=O)[C@@H](Cc1ccccc1)NC(=O)[C@@H](Cc1c[nH]c2ccccc12)NC(=O)OCc1ccccc1` showed a melting point of 130 to 131 °C.

Compound `Nn1c(-c2ccccc2Cl)nnc1-c1ccccc1C(F)(F)F` returned a melting point of 172 to 175 °C.

As for `COC(=O)C1=Cc2cc(OCc3ccc(Cl)cc3)ccc2S(=O)(=O)CC1`, the melting point was 130 to 133 °C.

Compound `O=C(NCCCl)NOCc1ccccc1` registered a melting point of 67 to 68 °C.

In turn, `O=c1cc(O)c2cccc([N+](=O)[O-])c2o1` had a melting point of 242 to 245 °C.

Turning to `COc1ccc2c(Cc3c(Cl)cncc3Cl)nnc(Cl)c2c1`, the melting point is 156 to 166 °C.

In turn, `Cc1c(-c2ccc(F)cc2)n(Cc2ccc(OCCBr)cc2)c2ccc(OCc3ccccc3)cc12` yielded a melting point of 114 to 116 °C.

`CS(=O)(=O)c1ccc(-c2ccc3cnc(Nc4ccc(N5CCCCC5)cc4)nn23)cc1`: the melting point was 204 to 209 °C.

`CNC(=S)Nc1cc(C)ccc1N1CCOCC1` returned a melting point of 107 °C.

In turn, `COCc1cccc(CNC(=O)c2nc3scc(COCc4ccc(C(=O)O)cc4)c3c(=O)[nH]2)c1` registered a melting point of 242 to 244 °C.

`c1ccc(N2CCN(c3ccccc3)C2Oc2ccc(C3N(c4ccccc4)CCN3c3ccccc3)cc2)cc1` had a melting point of 218 to 221 °C.

With `CN1CCC(CC(=O)N2c3ccccc3NC(=O)c3cscc32)CC1`, the melting point was in the range of 184 to 185 °C.

`CCOc1ccc2nc(COc3ccc(CC4SC(=O)N(C(c5ccccc5)(c5ccccc5)c5ccccc5)C4=O)cc3)n(C)c2n1` (configuration not stated) returned a melting point of 88 to 100 °C.

`CC1=C(O)C(=O)C(C)C1` (configuration not stated) gave a melting point of 92 to 93 °C.

On to `c1cn2nc(N3CCNCC3)ccc2n1`, for which the melting point was in the range of 122 to 123 °C.

Consider `CN1CCC2(C#N)C(C1)C1CN(C)C2C=C1C(=O)c1ccccc1` (configuration not stated), for which the melting point lay in the range of 120 to 139 °C.

In turn, `CC(C)(C)OC(=O)c1cccc(-c2nc(=O)c3ccccc3s2)n1` showed a melting point of 185 to 186 °C.

Take `COc1ccc(-c2sc3c(c2C)c(=O)c(C(C)=O)cn3Cc2ccccc2F)cc1`: the melting point was 215 to 216 °C.

Regarding `CCCc1nc(OC)c(NC(=S)N2CCN(c3cccc(O)c3)CC2)cc1C`, the melting point was in the range of 160 to 162 °C.

For `CCN(CC)C(=O)c1cc(-c2cccs2)c2occc2c1`, the melting point stood at 64 °C.

As to `CCCC(=O)Nc1n[nH]c2cc(Cl)c(-c3ccc(CC)cc3)cc12`, the melting point was 240 °C.

`NC(CCO)C1(c2ccc(Cl)cc2)CCC1` (configuration not stated) came in with a melting point of 98 to 99 °C.

`OCC1(c2c[nH]cn2)Cc2ccccc2C1`: the melting point was 181 to 184 °C.

Take `CCN(CC)C(=O)Nc1ccc(S(=O)(=O)N2C(=O)C(NCCN3CCNCC3)(c3ccccc3Cl)c3cc(Cl)ccc32)cc1` (configuration not stated): the melting point was 260 °C.

`Cc1c(C(=O)Cl)cccc1S(=O)(=O)CCCl`: the melting point was in the range of 67 to 70 °C.

The compound `O=C(Cn1c(-c2ccc(Br)cc2)nc2cccnc21)Nc1ccccc1Cl` registered a melting point of 230 to 232 °C.

Turning to `CC1(Cc2cc(C(C)(C)C)c(O)c(C(C)(C)C)c2)CCCCC1=O` (configuration not stated), the melting point is 75 °C.

As for `CC(=O)OCC(=O)N1C(C(N)=O)Cc2c([nH]c3ccccc23)C1c1ccccc1` (configuration not stated), the melting point was 195 to 197 °C.

In the case of `COc1ccc(Br)cc1OCc1ccccc1`, the melting point lay in the range of 70 to 71 °C.

The compound `CCOC(=O)C1=C2NCCN2C(C)=C(C(=O)OC)C1c1ccccc1[N+](=O)[O-]` (configuration not stated) displayed a melting point of 185 °C.

`CS(=O)(=O)c1ccc(C(CC2CCCC2)C(=O)O)cc1` (configuration not stated) yielded a melting point of 152 to 154 °C.

In the case of `CC(C)(C)OC(=O)N1CCN(CCC#N)CC1C(N)=O` (configuration not stated), the melting point lay within 117 to 118 °C.

`CCCCCCCCCCCCc1c2c(=O)c3ccccc3c2c(CCCCCCCCCCCC)c2c(=O)c3ccccc3c12` showed a melting point of 123 to 124 °C.

Turning to `Cc1cc(C)n2nc(SCc3ccccc3)c(C#N)c2n1`, the melting point is 140 °C.

In the case of `CC(C)(C)NS(=O)(=O)c1cc([N+](=O)[O-])ccc1Cl`, the melting point fell in the range of 168 to 171 °C.

Regarding `CCCn1c(NC(=O)c2ccccc2)nc2ccccc2c1=O`, the melting point was 133 to 135 °C.

With `CC1CN(C2=Nc3ccccc3Oc3ccccc32)C(C)CN1` (configuration not stated), the melting point lay within 46 to 48 °C.

In the case of `O=C(C=Cc1ccc(Oc2ccccc2)cc1)c1ccc(C2CCCCC2)cc1`, the melting point turned out to be 161 °C.

For the compound `Cc1ccc(-c2ccc3c(c2)C(=O)CCC3)cc1`, the melting point lay in the range of 86 to 87 °C.

Regarding `O=C(c1ccc(-n2nc(-c3ccccc3O)nc2-c2ccccc2O)cc1)N1CCOCC1`, the melting point was 157 to 160 °C.

Consider `C[Si](C)(C)NC(=O)C(Cl)(Cl)Cl`, for which the melting point fell in the range of 75 to 85 °C.

`CC(C)CCCC(C)C1C=CC2(CC(=O)O)C3=C(CCC12C)C1(C)CCC(O)CC1CC3` (configuration not stated) had a melting point of 221 to 222 °C.

One may read the melting point as the temperature, or range, at which the solid turns liquid.
